The test system of one test is osteoclast precursors. As to the kind of experiment: Osteoclast tartrate-resistant acid phosphatase assay. Format: cell-based. The note with it: RANKL and M-CSF, 7-14 days, tartrate-resistant acid phosphatase activity.
Test [1] has as its target T1, unphosphorylated c-FMS kinase (uFMS, Seq. ID no. 1) (Homo sapiens, UniProt P07333).
T1 construct: purchased Millipore
T1 sequence (P07333 538-972): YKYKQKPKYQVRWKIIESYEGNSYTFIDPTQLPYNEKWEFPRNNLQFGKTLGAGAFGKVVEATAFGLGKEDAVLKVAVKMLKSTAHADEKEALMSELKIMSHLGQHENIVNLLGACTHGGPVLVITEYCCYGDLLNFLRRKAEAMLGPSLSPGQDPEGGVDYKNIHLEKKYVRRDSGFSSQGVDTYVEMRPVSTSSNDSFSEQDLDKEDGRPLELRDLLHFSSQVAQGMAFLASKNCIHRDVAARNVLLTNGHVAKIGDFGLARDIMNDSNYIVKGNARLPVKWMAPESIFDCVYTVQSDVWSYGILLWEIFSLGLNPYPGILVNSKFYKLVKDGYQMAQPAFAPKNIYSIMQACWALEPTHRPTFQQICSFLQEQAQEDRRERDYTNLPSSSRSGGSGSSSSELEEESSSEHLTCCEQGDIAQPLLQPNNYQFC
The test can be described thus: uFMS kinase enzymatic assay (pyruvate kinase/lactate dehydrogenase coupled). It counts as biochemical. Conditions: ATP 500 μM, rate 3 to 4 h. The method, boiled down:
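Coupled PK/LDH assay following NADH oxidation at A340 with 10 nM unphosphorylated FMS, 1 mg/mL polyE4Y, 500 μM ATP in 90 mM Tris pH 7.5, 0.2% octyl-glucoside, 1% DMSO. Read continuously 4 h at 30 °C; rate from 3–4 h window versus no-compound control; IC50 from percent-inhibition series.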

A further test concerns M-NFS-60 cells. As to the kind of experiment: M-NFS-60 cell proliferation assay (resazurin). Format: cell-based. The note with it: 67 h incubation. The method in brief:
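Cells kept in medium containing 20 ng/mL mouse recombinant M-CSF. Fluorescence was read at ex 540/em 600 nm, and IC50 was fitted from percent inhibition across a range of inhibitor concentrations.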

Test [2] deals with phospho-FMS in THP-1 cells. The test can be described thus: Phospho-FMS ELISA assay in THP-1 cells. It counts as cell-based. Conditions: Homo sapiens, 4 h compound, M-CSF stimulation 5 min, read-out: pFMS inhibition in THP-1 cells. As to the method:
THP-1 cells (catalog #TIB-202) were obtained from the ATCC. Briefly, cells were grown in RPMI 1640 supplemented with 10% characterized fetal bovine serum, 1% sodium pyruvate, 1% Penicillin-Streptomycin-Glutamine (PSG) and 55 uM 2-mercaptoethanol (Invitrogen, Carlsbad, Calif.) at 37 degrees Celsius, 5% CO2, 95% humidity. Cells were allowed to expand until reaching 70-95% confluency at which point they were subcultured or harvested for assay use.
A serial dilution of test compound was diluted 1:100 in assay medium (RPMI 1640 supplemented with 10% characterized fetal bovine serum) in a 96 well black clear bottom plate (Corning, Corning, N.Y.). In a separate 96 well black clear bottom plate, one hundred and fifty thousand THP-1 cells were added per well in 100 μL in assay medium. Fifty microliters of diluted compound was then added to the cells. Plates were incubated for 4 hours at 37 degrees Celsius, 5% CO2, 95% humidity. At the end of the incubation period, cells were stimulated with 50 μL of a 100 nM solution of recombinant human M-CSF (catalog #216-MC, R & D Systems, Minneapolis, Minn.) in assay medium and the plate was incubated for 5 minutes at 37 degrees Celsius, 5% CO2, 95% humidity. Lysates were prepared and used to perform the phospho-FMS ELISA as described by the manufacturer (catalog #DYC3268, R & D Systems, Minneapolis, Minn.). GraphPad Prism was used to calculate IC50 values obtained from data generated from the ELISA assay.
A general note: In an ELISA, binding on a coated surface is turned into a signal by an enzyme label.

`Cc1nc(-n2nc(C3CCC3)[nH]c2=O)ccc1Oc1ccnc(-c2cnn(C)c2)c1` [Example 37, 3-cyclobutyl-1-(6-methyl-5-((2-(1-methyl-1H-pyrazol-4-yl)pyridin-4-yl)oxy)pyridin-2-yl)-1H-1,2,4-triazol-5(4H)-one]: the IC50 with osteoclast precursors was at most 10 nM; in test [1], at most 10 nM; with M-NFS-60 cells, 10 to 100 nM; in test [2], at most 10 nM.

For the origin of these results see patent US9193719B2, “1,2,4-triazol-5-ones and analogs exhibiting anti-cancer and anti-proliferative activities” (Deciphera Pharmaceuticals, LLC, priority 2013, dated 2015).
